In US20230002334A1, “TRPM8 MODULATORS” (Givaudan SA, priority 2019, published 2023) one finds EC50 data, which are given here for 25 compounds.

In this test the target is T1, hTRPM8 (Homo sapiens, UniProt Q7Z2W7).
T1 construct: expressed in transfected cells
As to the kind of experiment: Assay on TRPM8 modulators: calcium imaging (Fluo-4, Flexstation) in HEK293 cell line stably expressing hTRPM8. The test is classed as cell-based. Conditions: HEK293 cells stably expressing hTRPM8, calcium influx, sigmoidal dose-response fit; read-out: EC50. In short, it runs like this:
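Calcium influx monitored by Fluo-4 (2.7 μM with […] probenecid, 1 h 37 °C loading) in HEK293 cells stably expressing hTRPM8, in HEPES buffer pH 7.4 with 2 mM CaCl2. Fluorescence read 15 s before and 105 s after adding serial compound dilutions. Maximal activation relative to solvent and 31.6 μM menthol; EC50 from sigmoidal fit.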

T1 sequence (Q7Z2W7 whole entry): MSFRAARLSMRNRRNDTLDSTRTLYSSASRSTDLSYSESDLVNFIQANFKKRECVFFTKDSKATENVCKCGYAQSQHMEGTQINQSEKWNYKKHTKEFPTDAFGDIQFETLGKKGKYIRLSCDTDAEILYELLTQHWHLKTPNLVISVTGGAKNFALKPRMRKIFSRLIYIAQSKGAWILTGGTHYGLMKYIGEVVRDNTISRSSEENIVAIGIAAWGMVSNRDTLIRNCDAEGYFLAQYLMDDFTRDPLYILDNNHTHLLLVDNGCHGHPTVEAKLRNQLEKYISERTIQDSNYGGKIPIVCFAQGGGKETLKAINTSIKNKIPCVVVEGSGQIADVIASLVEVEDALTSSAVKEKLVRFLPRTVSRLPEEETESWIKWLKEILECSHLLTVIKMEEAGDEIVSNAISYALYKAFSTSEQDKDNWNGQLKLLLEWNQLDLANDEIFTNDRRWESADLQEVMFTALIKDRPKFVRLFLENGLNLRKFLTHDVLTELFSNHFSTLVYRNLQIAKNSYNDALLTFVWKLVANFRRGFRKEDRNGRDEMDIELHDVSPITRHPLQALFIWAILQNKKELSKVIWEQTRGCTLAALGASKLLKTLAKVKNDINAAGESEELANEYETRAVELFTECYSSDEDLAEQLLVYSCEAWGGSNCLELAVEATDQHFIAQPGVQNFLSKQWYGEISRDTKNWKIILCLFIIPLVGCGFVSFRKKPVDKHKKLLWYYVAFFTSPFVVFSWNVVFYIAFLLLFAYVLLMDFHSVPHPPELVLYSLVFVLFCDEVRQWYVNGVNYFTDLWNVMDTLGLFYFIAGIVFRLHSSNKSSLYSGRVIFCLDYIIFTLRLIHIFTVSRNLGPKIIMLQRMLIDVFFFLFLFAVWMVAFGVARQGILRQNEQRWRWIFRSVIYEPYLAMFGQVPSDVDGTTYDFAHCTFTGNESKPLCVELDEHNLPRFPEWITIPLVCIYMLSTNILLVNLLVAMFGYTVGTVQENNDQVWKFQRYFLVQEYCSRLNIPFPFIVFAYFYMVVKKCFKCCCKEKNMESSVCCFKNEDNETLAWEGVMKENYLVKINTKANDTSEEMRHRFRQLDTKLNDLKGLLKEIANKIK

`CC(C)=CC[C@]1(C)CC[C@@H]2[C@@H](C1)C(C)(C)ON2C` (racemic) [Compound 113, rac-(3aR,5S,7aR)-1,3,3,5-tetramethyl-5-(3-methylbut-2-en-1-yl)octahydrobenzo[c]isoxazole]: the concentration giving a half-maximal response (EC50) is 300 to 1000 nM.
In the case of `CC1CC(C)[C@@H]2[C@@H](C1C)C(C)(C)ON2C` (mixture of isomers) [Compound 114, rac-(3aR,7aR)-1,3,3,4,5,7-hexamethyloctahydrobenzo[c]isoxazole] it was 1000 to 35000 nM; in that of `CN1OC(C)(C)[C@@H]2CCC(c3ccccc3)C[C@H]21` (mixture of isomers) [Compound 115, rac-(3aR,7aR)-1,3,3-trimethyl-6-phenyloctahydrobenzo[c]isoxazole], 1000 to 35000 nM; in that of `CCC1CC(CC)[C@@H]2[C@@H](C1)C(C)(C)ON2CC` (mixture of isomers) [Compound 116, rac-(3aR,7aR)-1,5,7-triethyl-3,3-dimethyloctahydrobenzo[c]isoxazole], 1000 to 35000 nM.
With `CC1CC(C)[C@H]2[C@@H](C1C)C(C)(C)ON2C` (mixture of isomers) [Compound 117, rac-(3aR,7aS)-1,3,3,4,5,7-hexamethyloctahydrobenzo[c]isoxazole], the half-maximal effective concentration (EC50) is 1000 to 35000 nM.
The value for `CCC1(CC)C[C@@H]2[C@@H]([C@@H](C)C1)N(C)OC2(C)C` (racemic) [Compound 118, rac-(3aR,7S,7aR)-5,5-diethyl-1,3,3,7-tetramethyloctahydrobenzo[c]isoxazole] was 1000 to 35000 nM; that for `C[C@H]1C[C@@](C)(c2ccc(F)cc2)C[C@H]2[C@H]1N(C)OC2(C)C` (racemic) [Compound 119, rac-(3aS,5R,7S,7aS)-5-(4-fluorophenyl)-1,3,3,5,7-pentamethyloctahydrobenzo[c]isoxazole] was 300 to 1000 nM.
The value for `C[C@H]1C[C@@](C)(c2ccc(Cl)c(C#N)c2)C[C@@H]2[C@@H]1N(C)OC2(C)C` (racemic) [Compound 121, rac-2-chloro-5-((3aR,5R,7S,7aR)-1,3,3,5,7-pentamethyloctahydrobenzo[c]isoxazol-5-yl)benzonitrile] was under 50 nM.
In the case of `C[C@@H]1C[C@@](C)(c2ccc(Cl)c(C#N)c2)C[C@H]2[C@H]1N(C)OC2(C)C` (racemic) [Compound 122, rac-2-chloro-5-((3aS,5R,7R,7aS)-1,3,3,5,7-pentamethyloctahydrobenzo[c]isoxazol-5-yl)benzonitrile] it was 1000 to 35000 nM.
As for `Cc1ccc([C@@]2(C)C[C@@H]3[C@@H]([C@@H](C)C2)N(C)OC3(C)C)cc1C#N` (racemic) [Compound 123, rac-2-methyl-5-((3aR,5R,7S,7aR)-1,3,3,5,7-pentamethyloctahydrobenzo[c]isoxazol-5-yl)benzonitrile], the EC50 lay in the range of 50 to 300 nM.
Take `CCN1OC(C)(C)[C@@H]2C[C@](C)(c3cc(C#N)ccc3C)C[C@H](C)[C@H]21` (racemic) [Compound 125, rac-3-((3aR,5R,7S,7aR)-1-ethyl-3,3,5,7-tetramethyloctahydrobenzo[c]isoxazol-5-yl)-4-methylbenzonitrile]: the half-maximal effective concentration (EC50) is under 50 nM.
The value for `Cc1ccc(C#N)cc1[C@@]1(C)C[C@@H]2[C@@H]([C@@H](C)C1)N(C(C)C)OC2(C)C` (racemic) [Compound 126, rac-3-((3aR,5R,7S,7aR)-1-isopropyl-3,3,5,7-tetramethyloctahydrobenzo[c]isoxazol-5-yl)-4-methylbenzonitrile] was 50 to 300 nM; that for `CC(C)N1OC(C)(C)[C@@H]2C[C@](C)(c3cccc(C#N)c3)C[C@H](C)[C@H]21` (racemic) [Compound 127, rac-3-((3aR,5R,7S,7aR)-1-isopropyl-3,3,5,7-tetramethyloctahydrobenzo[c]isoxazol-5-yl)benzonitrile] was under 50 nM.
The value for `COc1ccc(C#N)cc1[C@H]1C[C@@H]2[C@@H]([C@@H](C)C1)N(C(C)C)OC2(C)C` (racemic) [Compound 128, rac-3-((3aR,5R,7S,7aR)-1-isopropyl-3,3,7-trimethyloctahydrobenzo[c]isoxazol-5-yl)-4-methoxybenzonitrile] was under 50 nM; that for `C[C@H]1C[C@@](C)(c2cc(Cl)cc(C#N)c2)C[C@@H]2[C@@H]1N(C)OC2(C)C` (racemic) [Compound 129, rac-3-chloro-5-((3aR,5R,7S,7aR)-1,3,3,5,7-pentamethyloctahydrobenzo[c]isoxazol-5-yl)benzonitrile] was under 50 nM; that for `Cc1cc(C#N)ccc1[C@@]1(C)C[C@@H]2[C@@H]([C@@H](C)C1)N(C)OC2(C)C` (racemic) [Compound 130, rac-3-methyl-4-((3aR,5R,7S,7aR)-1,3,3,5,7-pentamethyloctahydrobenzo[c]isoxazol-5-yl)benzonitrile] was 50 to 300 nM.
`C[C@H]1C[C@@](C)(c2ccc(C#N)cc2)C[C@@H]2[C@@H]1N(C)OC2(C)C` (racemic) [Compound 131, rac-4-((3aR,5R,7S,7aR)-1,3,3,5,7-pentamethyloctahydrobenzo[c]isoxazol-5-yl)benzonitrile]: the EC50 lay within 50 to 300 nM.
The value for `COc1ccc(C#N)cc1[C@]1(C)C[C@@H](C)[C@@H]2[C@@H](C1)C(C)(C)ON2C` (racemic) [Compound 132, rac-4-methoxy-3-((3aR,5R,7R,7aR)-1,3,3,5,7-pentamethyloctahydrobenzo[c]isoxazol-5-yl)benzonitrile] was 300 to 1000 nM; that for `COc1ccc(C#N)cc1[C@@]1(C)C[C@@H]2[C@@H]([C@@H](C)C1)N(C)OC2(C)C` (racemic) [Compound 133, rac-4-methoxy-3-((3aR,5R,7S,7aR)-1,3,3,5,7-pentamethyloctahydrobenzo[c]isoxazol-5-yl)benzonitrile] was under 50 nM; that for `Cc1ccc(C#N)c([C@@]2(C)C[C@@H]3[C@@H]([C@@H](C)C2)N(C)OC3(C)C)c1` (racemic) [Compound 134, rac-4-methyl-2-((3aR,5R,7S,7aR)-1,3,3,5,7-pentamethyloctahydrobenzo[c]isoxazol-5-yl)benzonitrile] was 50 to 300 nM.
The value for `Cc1ccc(C#N)cc1[C@H]1C[C@@H]2[C@@H]([C@@H](C)C1)N(C)OC2(C)C` (racemic) [Compound 136, rac-4-methyl-3-((3aR,5R,7S,7aR)-1,3,3,7-tetramethyloctahydrobenzo[c]isoxazol-5-yl)benzonitrile] was 50 to 300 nM.
The value for `COC(=O)c1ccc(C)c([C@@]2(C)C[C@@H]3[C@@H]([C@@H](C)C2)N(C)OC3(C)C)c1` (racemic) [Compound 137, rac-methyl 4-methyl-3-((3aR,5R,7S,7aR)-1,3,3,5,7-pentamethyloctahydrobenzo[c]isoxazol-5-yl)benzoate] was 50 to 300 nM.
For the compound `Cc1ccc(C#N)cc1[C@@]1(C)C[C@@H]2[C@@H]([C@@H](C)C1)N(C)OC2(C)C` (stereo in doubt) [Compound 138, rel-4-methyl-3-((3aR,5R,7S,7aR)-1,3,3,5,7-pentamethyloctahydrobenzo[c]isoxazol-5-yl)benzonitrile], the concentration for a half-maximal effect (EC50) is under 50 nM.
The value for `Cc1ccc(C#N)cc1[C@@]1(C)C[C@@H](C)[C@H]2[C@H](C1)C(C)(C)ON2C` (stereo in doubt) [Compound 139, rel-4-methyl-3-((3aS,5S,7R,7aS)-1,3,3,5,7-pentamethyloctahydrobenzo[c]isoxazol-5-yl)benzonitrile] was 50 to 300 nM; that for `Cc1ccncc1C1(C)CC(C)C2C(C1)C(C)(C)ON2C` (stereo not shown) [Compound 2, 1,3,3,5,7-pentamethyl-5-(4-methylpyridin-3-yl)octahydrobenzo[c]isoxazole] was 300 to 1000 nM.

Broadly, the EC50 is the concentration at which the effect is half-maximal.
